# Measurements taken from patent publication US11491169B2, “Remdesivir treatment methods” (Gilead Sciences, Inc., priority 2020, dated 2022).
# Read-outs that look alike come from different tables or passages of the source.
# Columns and labels:
# SARS-CoV-2 = SARS-CoV-2 Nluc antiviral assay in A549-hACE2 cells; format: cell-based; details: for Nluc signal (SARS-CoV-2 replication): 10 μM of CQ or HCQ alone
# HEp-2 cells [1] = test system: HEp-2 cells
# A549-hACE2 cells [2] = details: for Mean RDV-TP: human, 1 μM
# [3] = doses recommended under the former EUA guidance for COVID-19; cited from earlier work
# HEp-2 cells [4] = test: Formula Ia triphosphate (RDV-TP) formation in HEp-2 cells, LC-MS/MS; details: 2 h
# [5] = test system: respiratory syncytial virus (RSV); test: microbe, parasite or virus in culture; format: cell-based; details: human respiratory syncytial virus, HEp-2, read-out: Formula Ia RSV EC50, HEp2 cells
# Description: The cells were then infected with RSV A2 virus diluted in DMEM medium+GlutaMAX at an MOI=4 and incubated for 4 days at 37° C. and 5% CO2. The final volume in each well was 200 μL. Uninfected and untreated wells were included as controls for 100% cell viability. Following the incubation, 100 μL of culture supernatant was removed from each well and replaced with 100 μL of CellTiter-Glo reagent (Promega). The plates were then rocked for 2 minutes followed by a 10-minute incubation at 25° C. Cell viability was then assessed by measuring luminescence signal using and Envision plate reader. Values were normalized to the uninfected and infected DMSO controls (as 100% and 0% […], respectively) and data was fit using non-linear regression analysis with the XLfit software.
# A549-hACE2 cells [6] = details: Formula Ia and HCQ combination concentrations analyzed (data not shown)
# [7] = Severe acute respiratory syndrome coronavirus 2, read-out: SARS-CoV-2 Nluc EC50, A549-hACE2 cells, single agent + DMSO
structure (smiles),measurement,setting,value
"CCN(CC)CCCC(C)Nc1ccnc2cc(Cl)ccc12 (centres unmarked) [CQ, N′-(7-chloroquinolin-4-yl)-N,N-diethyl-pentane-1,4-diamine, reference compound]",Nluc signal (SARS-CoV-2 replication),SARS-CoV-2; A549-hACE2 cells,fully suppressed
same,EC50,SARS-CoV-2; [7],~451 nM
same,Effect on Formula Ia-TP levels,NHBE cultures,not statistically significant
same,Effect on formation of intracellular Formula Ia-TP,HEp-2 cells [1],dose-dependent reduction
same,Effect on Formula Ia-TP levels,A549-hACE2 cells [2],did not significantly reduce
same,Effect on production of Formula Ia-TP,A549-hACE2 cells [2],did significantly lower
same,Average systemic exposures,[3],610 to 760 nM
"CCC(CC)COC(=O)[C@H](C)N[P@](=O)(OC[C@H]1O[C@@](C#N)(c2ccc3c(N)ncnn23)[C@H](O)[C@@H]1O)Oc1ccccc1 [Formula Ia, (S)-2-ethylbutyl 2-(((S)-(((2R,3S,4R,5R)-5-(4-aminopyn-olo[2,1-f][1,2,4]triazin-7-yl)-5-cyano-3,4-dihydroxytetrahydrofuran-2-yl)methoxy)(phenoxy)phosphoryl)amino)propanoate]",EC50,"SARS-CoV-2; read-out: SARS-CoV-2 Nluc EC50, A549-hACE2 cells, + 10 nm HCQ",63.6 nM
same,EC50,"SARS-CoV-2; read-out: SARS-CoV-2 Nluc EC50, A549-hACE2 cells, + 40 nm HCQ",50.7 nM
same,EC50,"SARS-CoV-2; read-out: SARS-CoV-2 Nluc EC50, A549-hACE2 cells, + 640 nm CQ",46 nM
same,EC50,"SARS-CoV-2; read-out: SARS-CoV-2 Nluc EC50, A549-hACE2 cells, + 2500 nm HCQ",63 nM
same,Mean RDV-TP,A549-hACE2 cells [2]; 2 h,3.6 ± 0.2 pmol/million cells
same,Mean RDV-TP,A549-hACE2 cells [2]; 24 h,6.8 ± 1.3 pmol/million cells
same,Mean RDV-TP,A549-hACE2 cells [2]; 48 h,3.0 ± 0.5 pmol/million cells
same,Mean RDV-TP,HEp-2 cells [4]; 1 μM Formula Ia + 1 μM CQ,BLQ
same,Mean RDV-TP,HEp-2 cells [4]; 1 μM Formula Ia + 1 μM HCQ,BLQ
same,Mean RDV-TP,HEp-2 cells [4]; 1 μM Formula Ia + 10 μM CQ,BLQ
same,Mean RDV-TP,HEp-2 cells [4]; 1 μM Formula Ia + 10 μM HCQ,BLQ
same,Mean RDV-TP,HEp-2 cells [4]; 1 μM Formula Ia alone,BLQ
same,EC50,[5]; chloroquine 0 nM,49.5 ± 13.1 nM
same,EC50,[5]; chloroquine 10 nM,58.4 ± 12.8 nM
same,EC50,[5]; chloroquine 40 nM,72.1 ± 24.8 nM
same,EC50,[5]; chloroquine 160 nM,99.6 ± 30.3 nM
same,EC50,[5]; chloroquine 640 nM,138 ± 33.8 nM
same,EC50,[5]; chloroquine 2560 nM,209 ± 18.2 nM
"CCN(CCO)CCCC(C)Nc1ccnc2cc(Cl)ccc12 (centres unmarked) [HCQ, 2-[{4-[(7-chloroquinolin-4-yl)amino]pentyl}(ethyl)amino]ethanol, reference compound]",Nluc signal (SARS-CoV-2 replication),SARS-CoV-2; A549-hACE2 cells,fully suppressed
same,EC50,SARS-CoV-2; [7],~365 nM
same,Cytotoxicity,A549-hACE2 cells [6],not observed
same,Average systemic exposures,[3],approximately 1.7 μM
